# Reference: US20080070851A1, “METHOD FOR THE EXTRACTION OF […] ACTIVE PRODUCTS FROM SPERMATOPHYTE PLANTS, PRODUCTS THUS OBTAINED AND THEIR USE IN THE MEDICAL FIELD, IN […] AS SUBSTANCES WITH IMMUNOMODULATING ACTIVITY” (Institudo Agrario Di S. Michele All'Adige, priority 2000, published 2008)
# Tests used:
# [1] = stability of the active agent in culture medium (HPLC quantification); assay type: physicochemical; conditions: for halving time in culture medium: culture medium of ex. 10; for amount still present at the end of the test: culture medium of ex. 10, 72 h
# From the text: The instrumental conditions are the same as those described above for viniferine. The coefficient of molar extinction of both glucosides is almost the same as the one of the corresponding aglycones, so that they can be added as such after carrying out a correction for molecular weights (Mattivi et al. Isolation, characterization, and evolution in red wine vinification of resveratrol monomers, J. Agric. Food Chem., 1995, 43, 7, 1820-1823).
# Zeitschdift fur Lebensmittel-Untersuchung und Forschung, 1993, 196, 522-525. In addition to what is contained in the aforesaid document, it has been verified that the method is suitable for all monomer stilbenes, both free and glucosides, and that the eluted fraction of ethyl acetate can be dried under a light flow of nitrogen, in case it is necessary to carry out the exchange in another solvent and/or to further reduce the limits of quantification.
# Said techniques can be used for instance to control the stability of the active agent in culture mediums, and therefore to support in vitro experimental models which are going to be described in the following examples. For instance, the culture for means described in ex.
# [2] = test system: lymphocytes activated with anti-CD3/CD28; assay: apoptosis of activated lymphocytes; assay type: cell-based, human
# From the text: (§1) Mononucleated cells of human peripheral blood (PBMC) deriving from healthy subjects have been obtained by separation on gradient (Ficoll-Hypaque) of cells deriving from buffy coat.
# PBMC resuspended in a concentration of 1×10^6/ml have been fixed in acetone/methanol 1:4, treated with 100 KU/ml of RNase and marked with propydium iodide (50 mcg/ml). The cells have then been analyzed by means of flow cytofluorometry using a cytometer FACscan.
# PBMC resuspended in a concentration of 1×10^6/ml have been fixed in 4% paraformaldehyde, treated with 100 KU/ml of RNase and marked with propydium iodide. The cells have then been analyzed by means of observation with a confocal microscope (LEIKA TCS 4D).
# Mononucleated cells of human peripheral blood (PBMC) have been activated by incubation with anti-CD3+ anti-CD28 and then incubated with different doses of resveratrol (or DMSO as control) as described above. Non-activated cells deriving from the same buffy coat have been used as control.
# [3] = test system: CD8+ T cells activated with anti-CD3/CD28; assay: cytofluorometric analysis of intracytoplasmatic cytokine levels, CD8+ T cells; assay type: cell-based, human
# From the text: as §1
# (§2) In vitro production of cytokines induced by activation with monoclonal anti-CD3 antibody carried out by the various T cell underpopulations in PBMC has been evaluated by means of a simultaneous cytofluorometric determination of the intracytoplasmatic cytokine content and of the expression of surface antigens in every single cell. By using said method it has been possible to evaluate the production of cytokines by single cell under-populations without previously physically separating them, and therefore in presence of the interactions in the production of cytokines which take place in physiological systems. The execution of said method is made possible by the use of saponin as reversible permeabilizing agent of cell membrane. In short, PBMC have been resuspended in a concentration of 1×10^6/ml, activated by treatment with anti-CD3 (10 ng/ml) and incubated with various doses of resveratrol. After 3 days of culture at 37° C. in a CO2 incubator, the cells have been treated with anti-CD28 (2 ng/ml) and with resveratrol in the same doses previously used. After further 3 days of treatment, the cells have been incubated with a fluorescent monoclonal antibody specific for a surface antigen (CD4 or CD8), resuspended in a medium with the addition of 0.3% saponin, and marked with an optimal dose of a mixture of anti-cytokine monoclonal antibodies conjugated with various fluorochromes. The samples thus treated have then undergone cytofluorometric analysis using a cytofluorometer FACscan (BD).
# Mononucleated cells of human peripheral blood (PBMC) have been activated by incubation with anti-CD3+ anti-CD28 and then incubated with different doses of resveratrol (or DMSO as control) as described above. Non-activated cells deriving from the same buffy coat have been used as control. The percentage of T lymphocytes CD4+ and CD8+ positive for IL2, IL4 and IFN-γ has then been analyzed by means of flow cytofluorometry. […] The activity peak varies according to the examined cytokine, and precisely: 1.25-2.5 for IFN-γ (FIG. 1A), 0.625 for IL2 (FIG. 1B) and 2.5 for IL4 (FIG. 1C).
# [4] = test system: PBMC activated with anti-CD3+ anti-CD28; assay: percentage of CD4+ and CD8+ T lymphocytes in activated PBMC; assay type: cell-based, human
# Procedure: Mononucleated cells of human peripheral blood (PBMC) deriving from healthy subjects have been obtained by separation on gradient (Ficoll-Hypaque) of cells deriving from buffy coat. PBMC have been resuspended in a concentration of 1×10^6/ml and incubated for different periods of time with various doses of resveratrol.
# [5] = test system: lymphocytes activated with anti-CD3/CD28; assay: cell proliferation (Coulter count) and DNA synthesis (BrdU incorporation); assay type: cell-based, human
# From the text: (§3) Mononucleated cells of human peripheral blood (PBMC) deriving from healthy subjects have been obtained by separation on gradient (Ficoll-Hypaque) of cells deriving from buffy coat. Cell replication has been evaluated by a cellular count carried out using a Coulter Counter. DNA synthesis has been measured by the test of incorporation of bromodeoxyuridine (BrdU) evaluated by flow cytometry using a cytometer FACscan (Becton-Dickinson). Mononucleated cells of human peripheral blood (PBMC) have been activated by incubation with anti-CD3+ anti-CD28 and then incubated with different doses of resveratrol (or DMSO as control) as described above. Non-activated cells deriving from the same buffy coat have been used as control.
# [6] = test system: CD4+ T cells activated with anti-CD3/CD28; assay: cytofluorometric analysis of intracytoplasmatic cytokine levels, CD4+ T cells; assay type: cell-based, human
# From the text: as §1, §2
# Mononucleated cells of human peripheral blood (PBMC) have been activated by incubation with anti-CD3+ anti-CD28 and then incubated with different doses of resveratrol (or DMSO as control) as described above. Non-activated cells deriving from the same buffy coat have been used as control. The percentage of T lymphocytes CD4+ and CD8+ positive for IL2, IL4 and IFN-γ has then been analyzed by means of flow cytofluorometry. […]
# [7] = test system: human erythroleukemic line K 562; assay: natural killer (NK) activity of PBMC, 51Cr release; assay type: cell-based; conditions: 18 h incubation
# Procedure: as §1
# PBMC in a concentration of 2×10^6 cells/ml have been treated in vitro with different doses of resveratrol for 18 h. At the end of the incubation the cells have been tested for their natural cytotoxic activity (NK) against the human erythroleukemic line K 562. The cytotoxic activity of the effect-producing cells incubated for 4 hours at 37° C. with K562 has been determined using a cytotoxicity standard test based on the release of ^51Cr by target cells.
# (§4) Mononucleated cells of human peripheral blood (PBMC) have been incubated for 18 h with resveratrol in a concentration of 0.625, 1.25, 2.5, 5, 10 and 20 mcg/ml. At the end of the incubation the cells have been tested for their natural cytotoxic activity (NK) against the human erythroleukemic line K 562. […] On the contrary, at doses of 10 and 20 mcg/ml resveratrol induces an inhibition of NK activity.
# human lymphocytes = assay: expression of surface antigens CD16, CD4 and CD95 in lymphocytes; assay type: cell-based; conditions: dose of 5 mcg/ml
# Procedure: as §1
# PBMC have been resuspended in a concentration of 1×10^6/ml and incubated for different periods of time with various doses of resveratrol. The cells have then been incubated with one or more fluorescent monoclonal antibodies, each being specific for a surface antigen (CD4, CD8, CD16 and CD95), and they have undergone a cytofluorometric analysis using a cytofluorometer FACscan (BD).
# as §4
# MT-2 cells = assay: cytotoxic activity of T lymphocytes (CTL), 51Cr release; assay type: cell-based, human; conditions: 5 days
# Procedure: Mononucleated cells of human peripheral blood (PBMC) deriving from healthy subjects have been obtained by separation on gradient (Ficoll-Hypaque) of cells deriving from buffy coat. […] Mononucleated cells of human peripheral blood (PBMC) have been incubated with resveratrol in a concentration of 0.625, 1.25, 2.5, 5 and 10 mcg/ml in presence of MT-2 cells (line of human T cells deriving from blood of umbilical cord infected with HTLV1) for 5 days at 37° C. At the end of the incubation the cells have been tested for their cytotoxic activity against said MT-2 cells.
# [8] = test system: lymphocytes activated with anti-CD3/CD28; assay: cell mortality of activated lymphocytes; assay type: cell-based, human
# Procedure: as §3, with “mortality” for “replication”, “in trypan blue and/or” for “carried out using a Coulter Counter. DNA synthesis has been measured by the test of incorporation of bromodeoxyuridine (BrdU) evaluated”, “(Becton-Dickinson), determining the vitality of unfixed cells which have been marked with propydium iodide (PI).” for “(Becton-Dickinson).”
# [9] = test system: skin cancer induced by carcinogenic substances; conditions: in vivo, murine model of skin cancer; cited from earlier work
# [10] = test system: line HL60 (human promyelocytic acute leukemia); conditions: cited from earlier work
# cyclo-oxygenase = conditions: cited from earlier work
# [11] = test system: line MCF-7 derived from mammary adenocarcinoma; conditions: in vitro; cited from earlier work
# platelet aggregation = conditions: cited from earlier work
smiles,measurement,setting,value
Oc1ccc(/C=C\c2cc(O)cc(O)c2)cc1 [cis-resveratrol],halving time in culture medium,[1],38 h
same,amount still present at the end of the test,[1],about 25%
Oc1ccc(C=Cc2cc(O)cc(O)c2)cc1 [resveratrol],percentage of apoptotic cells,[2]; dose range of 2.5-10 mcg/ml,dose-dependent increase
same,apoptosis of activated cells,[2]; doses of 0.625 and 1.25 mcg/ml,does not have any effect
same,percentage of CD8+ cells which can synthesize all tested cytokines,[3]; dose of 5 and more significantly 10 mcg/ml,inhibition
same,"activity peak, CD8+ cells positive for IFN-γ","[3]; dose of peak stimulation, FIG. 1A",1.25 to 2.5 µg/mL
same,"activity peak, CD8+ cells positive for IL2","[3]; dose of peak stimulation, FIG. 1B",0.625 µg/mL
same,"activity peak, CD8+ cells positive for IL4","[3]; dose of peak stimulation, FIG. 1C",2.5 µg/mL
same,"percentage of T cells CD8+ positive for intracellular IFN-γ, IL2 and IL4","[3]; dose range 0.625-2.5 mcg/ml, with respect to controls",significant increase
same,percentage of CD4+ cells,[4]; all tested doses,does not induce any variation
same,percentage of activated CD8+ cells,[4]; dose range of 2.5-10 mcg/ml,dose-dependent decrease
same,percentage of activated CD8+ cells,[4]; lower doses (below 2.5 mcg/ml),does not induce any variation
same,cell proliferation,"[5]; dose range of 2.5-10 mcg/ml, FIGS. 3A and 3B",dose-dependent inhibition
same,number of treated cells,"[5]; doses of 0.625 and 1.25 mcg/ml, FIG. 3A",statistically significant increase
same,ability to synthesize DNA,"[5]; doses of 0.625 and 1.25 mcg/ml, FIG. 3B",statistically significant increase
same,"peak of stimulating activity, CD4+ cells positive for IFN-γ",[6]; FIG. 2A,2.5 µg/mL
same,"peak of stimulating activity, CD4+ cells positive for IL2",[6]; FIG. 2B,1.25 to 2.5 µg/mL
same,"peak of stimulating activity, CD4+ cells positive for IL4",[6]; FIG. 2C,0.625 µg/mL
same,NK activity,[7]; dose range of 0.625-5 mcg/ml,statistically significant increase
same,NK activity,[7]; doses of 10 and 20 mcg/ml,inhibition
same,cells which can co-express CD16 and CD95 (CD16+/CD95+ cells),human lymphocytes,significant increase
same,percentage of CD4+/CD95+ cells,human lymphocytes,does not induce any variation
same,cytotoxic activity of T lymphocytes,MT-2 cells; dose of 0.625 mcg/ml,increase
same,number of blast cells,MT-2 cells; dose of 0.625 mcg/ml,increase
same,cytotoxic activity of T lymphocytes,MT-2 cells; dose range of 2.5-10 mcg/ml,inhibition
same,number of blast cells,MT-2 cells; dose range of 2.5-10 mcg/ml,inhibition
same,mortality of activated cells,[8]; dose range of 2.5-10 mcg/ml,dose-dependent increase
same,mortality of activated cells,[8]; doses of 0.625 and 1.25 mcg/ml,does not have any effect
Oc1ccc(/C=C/c2cc(O)cc(O)c2)cc1 [trans-resveratrol],tumor genesis,[9],inhibit tumor genesis
same,cellular cycle of HL60 cells,[10],induce the stop of the cellular cycle in the transition from stage S to stage G2
same,apoptosis of HL60 cells,[10]; high doses,induce apoptosis
same,expression of CD95L in HL60 cells,[10]; high doses,regulate the expression of CD95L
same,cyclo-oxygenase activity,cyclo-oxygenase,inhibits
same,growth of MCF-7 cells,[11],inhibit
same,platelet aggregation,platelet aggregation,inhibits
same,halving time in culture medium,[1],28 h
same,amount still present at the end of the test,[1],not present as such
